Tests used:
[1] = cited from earlier work
[2] = pig, in vivo
[3] = Blood concentrations of doxycycline hyclate after deployment of drug delivery formulations in pigs (Example 1); type: in vivo; conditions: drug/vinylpolysiloxane pills (32% drug loading) deployed in three Yorkshire pigs
Description: The model drug, doxycycline hyclate, is added to the Zhermack Elite Double 22 base and catalyst to obtain a final drug loading percentage of 32%. Each pill has around 30 mg of drug (FIG. 1B). Drug crystals less than 75 μm can be visualized on the surface of the pill using scanning electron microscope (FIG. 1C). A series of pills with 0.5 mm holes inside them can be strung on a retention frame such as nitinol superelastic wire and encased in a Tygon tubing with stainless steel beads and Nusil glue at the ends of the article (FIG. 1D). Other drugs such as moxifloxacin, isoniazid, pyrazinamide, and ethambutol can also be mixed with the Zhermack Elite Double 22 base and catalyst at drug loading percentages greater than 25 wt %. Stability of the drug form can be evaluated using proton nuclear magnetic resonance spectroscopy after extraction of the drug from the matrix in water.
The pills were created by first mixing the drug into the Zhermack Elite Double 22 base and catalyst. […] Drug loading percentages were determined relative to the finally cured silicone mixture weight. […]
After deployment of the drug delivery formulations in three Yorkshire pigs in a large animal model, concentrations of doxycycline hyclate in the blood were measured, and drug release is sustained for at least 7 days with non-zero values (FIG. 3B).

Molecule	stability in acid [1]	duration of detectable serum concentrations [2]	drug release sustained with non-zero concentrations in the blood [3]	duration drug was detectable in serum [2]	time after which no drug was detectable in serum [2] [days]	time to detectable serum concentrations [2] [min]
CO[C@H]1/C=C/O[C@@]2(C)Oc3c(C)c(O)c4c(O)c(c(/C=N/N5CCN(C)CC5)c(O)c4c3C2=O)NC(=O)/C(C)=C\C=C\[C@H](C)[C@H](O)[C@@H](C)[C@@H](O)[C@@H](C)[C@H](OC(C)=O)[C@@H]1C [rifampicin]	rapidly degrades in acid	a week				
doxycycline hyclate			at least 7 days	at least 28 days	3	≤ 15
